The target in one data set is T1, Lewy bodies (Homo sapiens, UniProt P37840).
T1 construct: Post-mortem midbrain tissue from DLB and PD patients was obtained from the HBTRC Brain Bank at McLean Hospital; tissue HBTRC Brain Bank at McLean Hospital; host or cells: formalin-fixed post-mortem human midbrain (DLB and PD patients)
The data set is described as follows: Staining of Lewy bodies in post-mortem DLB/PD midbrain tissue. For staining on a LB (FIG. 2): key: positive staining with high contrast (++); positive staining with low contrast (+); negative staining (−). The class given is binding. Particulars: for Lewy Bodies Contrast: DLB/PD post-mortem midbrain tissue, dyes in PBS at 500 nM, 5 μM for 30 minutes; for staining on a LB (FIG. 2): DLB post-mortem midbrain tissue.

The next data set addresses T2, Lewy neurites (Homo sapiens, UniProt P37840).
T2 construct: Post-mortem midbrain tissue from DLB and PD patients was obtained from the HBTRC Brain Bank at McLean Hospital; tissue HBTRC Brain Bank at McLean Hospital; host or cells: formalin-fixed post-mortem human midbrain (DLB and PD patients)
The data set is described as follows: Staining of Lewy neurites in post-mortem DLB/PD midbrain tissue. For all read-outs here: key: positive staining with high contrast (++); positive staining with low contrast (+); negative staining (−). The class given is binding. Particulars: for Lewy Neurites Contrast: DLB/PD post-mortem midbrain tissue, dyes in PBS at 500 nM, 5 μM for 30 minutes; for staining on a LN (FIG. 2): DLB post-mortem midbrain tissue.

Another data set concerns AD Plaque. The data set is described as follows: Staining of plaques in AD temporal lobe sections. Note: key: positive (+) staining for both plaques and tangles; did not bind (−) AD pathology. It counts as binding, human. Particulars: 5 μM dye in PBS. The protocol: (§1) Paraffin-embedded formalin-fixed tissue from the temporal lobe of AD patients was obtained through the MA ADRC Brain Bank. Sections were stained with 0.05% Thio S to visualize plaques and NFT. Tissue was then stained with 5 μM dye in PBS. Slides were imaged on an Olympus Microscope at 20×, with a GFP emission filter for Thio S, and appropriate emission ranges for the dyes.

In a further data set the test system is AD NFT. The experiment in a line: Staining of neurofibrillary tangles (NFT) in AD temporal lobe sections. Note: key: positive (+) staining for both plaques and tangles; did not bind (−) AD pathology. It counts as binding, human. The settings on record: 5 μM dye in PBS. The protocol:
as §1

The nature of data set [1]: Blood-brain barrier crossing by in vivo fluorescence imaging after IV injection. The settings on record: for BBB Crossing: mouse, in vivo.
Description: (§2) Wide field fluorescence images were taken with a CCD camera on an Olympus microscope.
Images were taken with a BIO-RAD MRC1024 multi-photon microscope.
as §2

The conditions of data set [2]: PD/APP transgenic mouse (18 mo), tail vein, 10 mg/kg, multi-photon microscope; cited from earlier work.

Description for Lewy bodies: (§3) Post-mortem midbrain tissue from DLB and PD patients was obtained from the HBTRC Brain Bank at McLean Hospital. Tissue was fixed with formalin and immuno-stained with H3C primary antibody for synuclein and Alexa488 or Cy5 (not shown) conjugated secondary antibody. Immuno-stained tissue was incubated with fluorescent dyes in PBS at concentrations of 500 nM, 2 μM, and 5 μM for 30 minutes. Slides of tissue were imaged with Olympus Microscope at 60× with appropriate filter set.
Description for Lewy neurites: as §3

What is called Log P is a log measure of how a compound divides between an organic and an aqueous phase. In the case of “4-[4-[4-(dimethylamino)phenyl]-1,3-butadienyl]-1-ethyl quinolinium [LDS 798]”, at Lewy bodies (2 μM), the “Lewy Bodies Contrast” value is listed as “+ +”. Besides, at Lewy neurites (2 μM), the “Lewy Neurites Contrast” value was “−”. Also, the “AD Plaque Contrast” value with AD Plaque is given as “−”. Moreover, in the data set with AD NFT, the “AD NFT Contrast” value was “−”. In data set [1], the “BBB Crossing” value is given as “+”. In addition, the “BBB crossing (wide field fluorescence time course)” value in data set [1] (wildtype mouse, IV, 10 mg/kg in 6% DMSO and 1×PBS) is “crosses BBB and rapidly enters brain”. Besides, the “Log P” value in the data set “Log P” came out at 1.8.

For the compound `CCN1C(=CC=CC=Cc2sc3ccccc3[n+]2CC)Sc2ccccc21.[I-]` [3-3′-DTDCI, 3,3′-diethylthiadicarbocyanine iodide], the “Lewy Bodies Contrast” value at Lewy bodies (2 μM) is recorded as “+”. Further, at Lewy neurites (2 μM), the “Lewy Neurites Contrast” value is on record as “−”. Also, the “AD Plaque Contrast” value in the data set with AD Plaque is recorded as “+”. Moreover, the “AD NFT Contrast” value in the data set on AD NFT is on record as “−”. Also, the “BBB Crossing” value in data set [1] was “−”.

For `CN1C(=CC=CC=CC=CC2=[N+](C)c3ccccc3C2(C)C)C(C)(C)c2ccccc21.[O-][Cl+3]([O-])([O-])[O-]` [HITC ClO4, 2-[7-(1,3-dihydro-1,3,3-trimethyl-2H-indol-2-ylidene)-1,3,5-heptatrienyl]-1,3,3-trimethyl-3H-indolium perchlorate], the “Lewy Bodies Contrast” value on Lewy bodies (2 μM) was “+”. Besides, the “Lewy Neurites Contrast” value at Lewy neurites (2 μM) is “−”. Also, in the data set on AD Plaque, the “AD Plaque Contrast” value was “−”. In addition, in the data set with AD NFT, the “AD NFT Contrast” value is on record as “−”.

Usually logP stands for the decadic logarithm of the partition coefficient of the neutral form, usually between octanol and water. In the case of `CC[n+]1ccc(C=CC=Cc2ccc(N(C)C)cc2)cc1.[O-][Cl+3]([O-])([O-])[O-]` [LDS 722, 4-[4-[4-(dimethylamino)phenyl]-1,3-butadienyl]-1-ethyl-pyridinium perchlorate], on Lewy bodies (2 μM), the “staining on a LB (FIG. 2)” value is “++” and the “Lewy Bodies Contrast” value is listed as “+ +”. Besides, on Lewy neurites (2 μM), the “staining on a LN (FIG. 2)” value is “++” and the “Lewy Neurites Contrast” value is “+”. In the data set on AD Plaque, the “AD Plaque Contrast” value is reported as “+ +”. The “AD NFT Contrast” value in the data set on AD NFT is on record as “+ +”. For the same compound, in “Log P”, the logP turned out to be 1.04.

For `CN(C)c1ccc(C=CC=CC2=[N+](C)c3ccccc3C2(C)C)cc1.[O-][Cl+3]([O-])([O-])[O-]` [LDS 730, 2-[4-[4-(dimethylamino)phenyl]-1,3-butadienyl]-1,3,3-trimethyl-3H-indolium perchlorate], the “Lewy Bodies Contrast” value at Lewy bodies (2 μM) is on record as “+”. Moreover, the “Lewy Neurites Contrast” value at Lewy neurites (2 μM) is “−”. Further, the “AD NFT Contrast” value with AD NFT is reported as “+”.

`CCN(CC)c1ccc2nc3c(cc(N)c4ccccc43)[o+]c2c1.[O-][Cl+3]([O-])([O-])[O-]` [Nile Blue 690 ClO4, 5-amino-9-(diethylamino)-benzo[a]phenoxazin-7-ium perchlorate]: at Lewy bodies (2 μM), the “Lewy Bodies Contrast” value is “+ +”. At Lewy neurites (2 μM), the “Lewy Neurites Contrast” value was “−”. The “AD Plaque Contrast” value in the data set on AD Plaque was “−”. The “AD NFT Contrast” value in the data set on AD NFT is on record as “−”.

In the case of `CCN(CC)c1ccc2nc3c4ccccc4c(=O)cc-3oc2c1` [Nile Red, 9-diethylamino-5-benzo[α]phenoxazinone], the “Lewy Bodies Contrast” value at Lewy bodies (2 μM) was “+”. In addition, the “Lewy Neurites Contrast” value on Lewy neurites (2 μM) was “−”. The “AD Plaque Contrast” value in the data set with AD Plaque is listed as “−”. Besides, the “AD NFT Contrast” value in the data set on AD NFT is recorded as “−”. This compound returned a logP in the data set “Log P” of 3.51.

For the compound `CCN=c1cc2oc3c4c5c(cc3nc-2c2ccccc12)CCCN5CCC4` [Oxazine 750, reference compound], the “staining on a LB (FIG. 2)” value on Lewy bodies (5 μM) is “−”. Also, the “staining on a LN (FIG. 2)” value on Lewy neurites (5 μM) is listed as “−”.

Take `[11CH3]Nc1ccc(-c2nc3ccc(O)cc3s2)cc1` [PiB]: in data set [2], the “time to cross the BBB after IV injection” value was at most 1 min.

With `O=S(=O)([O-])c1ccccc1C=Cc1ccc(-c2ccc(C=Cc3ccccc3S(=O)(=O)[O-])cc2)cc1.[Na+].[Na+]` [Stilbene 420, 2,2″-([1,1′-biphenyl]-4.4′-diyldi-2,1-ethenediyl)bis-benzenesulfonic acid disodium salt], at Lewy bodies (2 μM), the “Lewy Bodies Contrast” value is on record as “+ +”. For the same compound, at Lewy neurites (2 μM), the “Lewy Neurites Contrast” value was “+”. The “AD NFT Contrast” value in the data set with AD NFT was “+”.

In the case of `O=C1NC(=S)NC(=O)C1=C/C=C/C=C/c1c(O)[nH]c(=S)[nH]c1=O` [THK-265], at Lewy bodies (2 μM), the “Lewy Bodies Contrast” value is “+”. Further, the “Lewy Neurites Contrast” value at Lewy neurites (2 μM) is listed as “−”. Further, the “AD Plaque Contrast” value in the data set with AD Plaque is listed as “+”. In the data set on AD NFT, the “AD NFT Contrast” value was “−”. For the same compound, in data set [1], the “BBB Crossing” value is recorded as “−”.

The values are drawn from US9242015B2, “Development and screening of contrast agents for in vivo imaging of Parkinson's disease” (The General Hospital Corporation, priority 2010, dated 2016).
